Assay [1] relates to Nqo1 (NAD(P)H quinone dehydrogenase 1) mRNA, Nrf2 downstream molecule. The experiment in a line: In vivo Nrf2 transcriptional activity measurement (Nqo1 mRNA in organs by qPCR). The settings on record: Mus musculus, C57BL/6J mice, 7 to 8 hours. The procedure: Test Example 2: In Vivo Nrf2 Transcriptional Activity Measurement
A test compound (solvent: 10 vol % dimethyl sulfoxide/50 mM glycine/32 mM sodium hydroxide/physiological saline) was administered to C57BL/6J mice (7-8 weeks old), which were euthanized by whole blood collection under isoflurane anesthesia 7 to 8 hours later, followed by the collection of various organs. mRNA was purified from the collected organs, and the mRNA expression level of Mapk1 as an internal control and the mRNA expression level of Nqo1 (NAD(P)H quinone dehydrogenase 1) as a typical Nrf2 downstream molecule were each measured by qPCR. The Nqo1 mRNA expression level was quantified by comparative CT, and an expression level ratio to a non-administration group was calculated. The administration of the test compound elevated the Nqo1 mRNA expression level in the various organs, confirming that the test compound also has a Nrf2-activating effect in vivo.
(In general: In qPCR the cycle at which signal appears reflects the starting amount.)

In assay [2] the test system is Nrf2 transcriptional activity (pARE-Luc reporter) in HepG2 cells. The experiment in a line: In vitro Nrf2 transcriptional activity measurement by ARE-dependent reporter assay in HepG2 cell. The assay is classed as cell-based, human. As to conditions: HepG2 cells transfected with pARE-Luc, 4 hours at 37° C., luciferase activity of Example 1-54 or Example 17-23 at 3.75 μM defined as 100%. The procedure, abridged:
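HepG2 cells transfected with pGL4.37 (pARE-Luc), replated onto compound and incubated 4 h at 37° C; luciferase read by Bright-Glo luminescence. Response normalized to 100% set by a reference compound at 3.75 μM; EC50 from dose-response curve.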
On the technique in general: A reporter such as luciferase makes a cellular process visible.

[3] abbreviates: ip, Intraperitoneal, kidney, read-out: Nqo1 mRNA expression level ratio to non-administration group, Kidney.
The mark [4] stands for this setting: ip, Intraperitoneal, liver, read-out: Nqo1 mRNA expression level ratio to non-administration group, Liver.
The mark [5] stands for this setting: ip, Intraperitoneal, lung, read-out: Nqo1 mRNA expression level ratio to non-administration group, Lung.
[6] abbreviates: Oral, kidney, read-out: Nqo1 mRNA expression level ratio to non-administration group, Kidney.
[7] abbreviates: Oral, liver, read-out: Nqo1 mRNA expression level ratio to non-administration group, Liver.
The mark [8] stands for this setting: Oral, lung, read-out: Nqo1 mRNA expression level ratio to non-administration group, Lung.

pEC50: −log10 of the molar value. Like-named read-outs stand apart in the source and are kept apart here.

Regarding `COC1CC2(C1)CN(c1ccc(C(=O)N3COc4c(cccc4-c4cc(N5C6CCC5COC6)c(C(=O)O)cc4F)C3)c(Cl)c1)C2` [Compound 1-88, 4-[3-[2-Chloro-4-(6-methoxy-2-azaspiro[3.3]heptan-2-yl)benzoyl]-2,4-dihydro-1,3-benzoxazin-8-yl]-5-fluoro-2-(3-oxa-8-azabicyclo[3.2.1]octan-8-yl)benzoic acid], the fold induction at 15 mg/kg in assay [1] (setting [3]) turned out to be 3; in assay [1] (setting [4]), 4.3; in assay [1] (setting [5]), 6.1; in assay [1] (setting [6]), 3.4; in assay [1] (setting [7]) it was 5.4; in assay [1] (setting [8]) it was 8.9. This molecule showed a pEC50 in assay [2] (Homo sapiens) of 8.68.

On to `COc1ccc(-c2cc(Cl)c(C(=O)N3COc4c(cccc4-c4cc(N5C6CCC5COC6)c(C(=O)O)cc4F)C3)c(Cl)c2)cn1` [Compound 2-2, 4-[3-[2,6-Dichloro-4-(6-methoxypyridin-3-yl)benzoyl]-2,4-dihydro-1,3-benzoxazin-8-yl]-5-fluoro-2-(3-oxa-8-azabicyclo[3.2.1]octan-8-yl)benzoic acid], for which the fold induction at 10 mg/kg amounted to 5.3 in assay [1] (setting [3]), 5.8 in assay [1] (setting [4]) and 17 in assay [1] (setting [5]). Also, the pEC50 in assay [2] (Homo sapiens) is 8.19.

On to `CCN1CCN(c2cc(Cl)c(C(=O)N3COc4c(cccc4-c4cc(N5C6CCC5COC6)c(C(=O)O)cc4F)C3)c(Cl)c2)CC1` [Compound 4-8, 4-[3-[2,6-Dichloro-4-(4-ethylpiperazin-1-yl)benzoyl]-2,4-dihydro-1,3-benzoxazin-8-yl]-5-fluoro-2-(3-oxa-8-azabicyclo[3.2.1]octan-8-yl)benzoic acid], for which the figures for the fold induction at 10 mg/kg in assay [1] (setting [3]), in assay [1] (setting [4]) and in assay [1] (setting [5]) were 3.4, 6.7 and 6.2, respectively. The molecule also had a negative logarithm of the EC50 (pEC50) in assay [2] (Homo sapiens) of 8.24.

For the molecule `COCCOc1cc(Cl)c(C(=O)N2COc3c(cccc3-c3cc(N4C5CCC4COC5)c(C(=O)O)cc3F)C2)c(Cl)c1` [Compound 4-37, 4-[3-[2,6-Dichloro-4-(2-methoxyethoxy)benzoyl]-2,4-dihydro-1,3-benzoxazin-8-yl]-5-fluoro-2-(3-oxa-8-azabicyclo[3.2.1]octan-8-yl)benzoic acid], the fold induction at 10 mg/kg in assay [1] (setting [3]) was determined as 4; in assay [1] (setting [4]), 8; in assay [1] (setting [5]), 5.4. In addition, the pEC50 in assay [2] (Homo sapiens) is 8.20.

Turning to `COC1(OC)CN(c2cc(Cl)c(C(=O)N3COc4c(cccc4-c4cc(N5C6CCC5COC6)c(C(=O)O)cc4F)C3)c(Cl)c2)C1` [Compound 5-1, 4-[3-[2,6-Dichloro-4-(3,3-dimethoxyazetidin-1-yl)benzoyl]-2,4-dihydro-1,3-benzoxazin-8-yl]-5-fluoro-2-(3-oxa-8-azabicyclo[3.2.1]octan-8-yl)benzoic acid], the fold induction at 10 mg/kg came out at 4.4 in assay [1] (setting [3]), 6.8 in assay [1] (setting [4]) and 19 in assay [1] (setting [5]). For the same molecule, the fold induction at 30 mg/kg came to 5.1 in assay [1] (setting [6]), 3.9 in assay [1] (setting [7]) and 17 in assay [1] (setting [8]). Besides, the pEC50 in assay [2] (Homo sapiens) was 8.80.

On to `O=C(O)c1cc(F)c(-c2cccc3c2OCN(C(=O)c2c(Cl)cc(N4CC5(C4)OCCCO5)cc2Cl)C3)cc1N1C2CCC1COC2` [Compound 5-2, 4-[3-[2,6-Dichloro-4-(5,9-dioxa-2-azaspiro[3.5]nonan-2-yl)benzoyl]-2,4-dihydro-1,3-benzoxazin-8-yl]-5-fluoro-2-(3-oxa-8-azabicyclo[3.2.1]octan-8-yl)benzoic acid], for which the fold induction at 10 mg/kg in assay [1] (setting [3]) was found to be 4.3; in assay [1] (setting [4]), 6.9; in assay [1] (setting [5]), 20. Also, the fold induction at 30 mg/kg worked out at 4 in assay [1] (setting [6]), 6.9 in assay [1] (setting [7]) and 20 in assay [1] (setting [8]). In assay [2] (Homo sapiens), this molecule had a pEC50 of 8.89.

As for `CC1COC2(CN(c3cc(Cl)c(C(=O)N4COc5c(cccc5-c5cc(N6C7CCC6COC7)c(C(=O)O)cc5F)C4)c(Cl)c3)C2)OC1` [Compound 5-7, 4-[3-[2,6-Dichloro-4-(7-methyl-5,9-dioxa-2-azaspiro[3.5]nonan-2-yl)benzoyl]-2,4-dihydro-1,3-benzoxazin-8-yl]-5-fluoro-2-(3-oxa-8-azabicyclo[3.2.1]octan-8-yl)benzoic acid], the fold induction at 10 mg/kg in assay [1] (setting [3]) amounted to 4; in assay [1] (setting [4]), 5.4; in assay [1] (setting [5]), 18. The molecule also had a pEC50 in assay [2] (Homo sapiens) of 8.77.

As to `CC1(C)COC2(CN(c3cc(Cl)c(C(=O)N4COc5c(cccc5-c5cc(N6C7CCC6COC7)c(C(=O)O)cc5F)C4)c(Cl)c3)C2)OC1` [Compound 5-9, 4-[3-[2,6-Dichloro-4-(7,7-dimethyl-5,9-dioxa-2-azaspiro[3.5]nonan-2-yl)benzoyl]-2,4-dihydro-1,3-benzoxazin-8-yl]-5-fluoro-2-(3-oxa-8-azabicyclo[3.2.1]octan-8-yl)benzoic acid], the figures for the fold induction at 15 mg/kg in assay [1] (setting [3]), in assay [1] (setting [4]) and in assay [1] (setting [5]) were 3.7, 6.7 and 15, respectively. For the same molecule, the fold induction at 30 mg/kg in assay [1] (setting [6]) worked out at 5.2; in assay [1] (setting [7]), 6; in assay [1] (setting [8]), 19. Further, the pEC50 in assay [2] (second printing of Table 20-1) was 8.77.

For the molecule `O=C(O)c1cc(F)c(-c2cccc3c2OCN(C(=O)c2c(Cl)cc(N4CC5(C4)CC4(C5)OCCCO4)cc2Cl)C3)cc1N1C2CCC1COC2` [Compound 5-10, 4-[3-[2,6-Dichloro-4-(7,11-dioxa-2-azadispiro[3.1.56.14]dodecan-2-yl)benzoyl]-2,4-dihydro-1,3-benzoxazin-8-yl]-5-fluoro-2-(3-oxa-8-azabicyclo[3.2.1]octan-8-yl)benzoic acid], the fold induction at 15 mg/kg in assay [1] (setting [3]) was determined as 5.1; in assay [1] (setting [4]), 5.4; in assay [1] (setting [5]), 17. The same molecule gave a negative-log EC50 (pEC50) in assay [2] (Homo sapiens) of 8.49.

In the case of `COC1(OC)CN(c2cc(Cl)c(C(=O)N3COc4c(cccc4-c4ccc(C(=O)O)c(N5C6CCC5COC6)c4)C3)c(Cl)c2)C1` [Compound 5-16, 4-[3-[2,6-Dichloro-4-(3,3-dimethoxyazetidin-1-yl)benzoyl]-2,4-dihydro-1,3-benzoxazin-8-yl]-2-(3-oxa-8-azabicyclo[3.2.1]octan-8-yl)benzoic acid], the fold induction at 15 mg/kg in assay [1] (setting [6]) worked out at 3.6; in assay [1] (setting [7]), 4.8; in assay [1] (setting [8]), 14. This molecule also gave a pEC50 in assay [2] (Homo sapiens) of 8.46.

`O=C(O)c1cc(F)c(-c2cccc3c2OCN(C(=O)c2c(Cl)cc(N4CC5(CN(CC(F)F)C5)C4)cc2Cl)C3)cc1N1C2CCC1COC2` [Compound 7-2, 4-[3-[2,6-Dichloro-4-[6-(2,2-difluoroethyl)-2,6-diazaspiro[3.3]heptan-2-yl]benzoyl]-2,4-dihydro-1,3-benzoxazin-8-yl]-5-fluoro-2-(3-oxa-8-azabicyclo[3.2.1]octan-8-yl)benzoic acid]: the values for the fold induction at 15 mg/kg in assay [1] (setting [3]), in assay [1] (setting [4]) and in assay [1] (setting [5]) were 4.3, 6.2 and 11, respectively. In assay [2] (Homo sapiens), this molecule gave a pEC50 of 8.34.

Usually pEC50 stands for −log10 of the EC50, conventionally taken in molar units. Read a low pEC50 as a high EC50.

The values are drawn from patent publication US20250171457A1, “NITROGEN-CONTAINING HETEROCYCLIC COMPOUND HAVING NRF2 ACTIVATION EFFECT” (CHUGAI SEIYAKU KABUSHIKI KAISHA, priority 2022, published 2025).
